Assay results: PubChem BioAssay AID1963865 (Molecular Pharmacology Branch, DTP, NCI, 2024)

Tested on: KRAS PDC multicell spheroid viability
Assay: Anticancer human tumor 825966-067-R-J1-PDC patient-derived colon carcinoma cell line growth inhibition [KRAS2]
Conditions: for IC50: curve of first compound; for viability, T/C: stronger effect = lower value
Summary of the method: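 KRAS-mutant tumor cells were grown as spheroids with HUVEC endothelial cells and human MSCs as stroma. Targeted agents were tested alone and with KRAS pathway inhibitors. Doses started at or near clinical Cmax, or 10 microM, descending half-log.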

[1] = second compound 0.1 µM, first compound 0.0316 µM
[2] = second compound 0.1 µM, first compound 0.1 µM
[3] = second compound 0.1 µM, first compound 0.316 µM
[4] = second compound 0.1 µM, first compound 1 µM
[5] = second compound 0.1 µM, first compound 3.16 µM
[6] = second compound 0.1 µM, first compound 10 µM
[7] = second compound 0.316 µM, first compound 0.0316 µM
[8] = second compound 0.316 µM, first compound 0.1 µM
[9] = second compound 0.316 µM, first compound 0.316 µM
[10] = second compound 0.316 µM, first compound 1 µM
[11] = second compound 0.316 µM, first compound 3.16 µM
[12] = second compound 0.316 µM, first compound 10 µM
[13] = second compound 1 µM, first compound 0.0316 µM
[14] = second compound 1 µM, first compound 0.1 µM
[15] = second compound 1 µM, first compound 0.316 µM
[16] = second compound 1 µM, first compound 1 µM
[17] = second compound 1 µM, first compound 3.16 µM
[18] = second compound 1 µM, first compound 10 µM
[19] = second compound 3.16 µM, first compound 0.0316 µM
[20] = second compound 3.16 µM, first compound 0.1 µM
[21] = second compound 3.16 µM, first compound 0.316 µM
[22] = second compound 3.16 µM, first compound 1 µM
[23] = second compound 3.16 µM, first compound 3.16 µM
[24] = second compound 3.16 µM, first compound 10 µM
[25] = second compound 10 µM, first compound 0.0316 µM
[26] = second compound 10 µM, first compound 0.1 µM
[27] = second compound 10 µM, first compound 0.316 µM
[28] = second compound 10 µM, first compound 1 µM
[29] = second compound 10 µM, first compound 3.16 µM
[30] = second compound 10 µM, first compound 10 µM
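Further: spheroids exposed to compounds for 7 days.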
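Wherever viability, T/C is given: 100% = DMSO vehicle control viability.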

CC(C)NCC(C(=O)N1CCN(c2ncnc3c2C(C)CC3O)CC1)c1ccc(Cl)cc1 (stereo not given) + CNCc1ccccc1-c1csc(C(C)Nc2nc(C)nc3cc(OC)c(OC)cc23)c1
IC50 (second compound 0.1 µM): 1.88 µM
IC50 (second compound 0.316 µM): 1.78 µM
IC50 (second compound 1 µM): 0.787 µM
IC50 (second compound 3.16 µM): 0.0322 µM
IC50 (second compound 10 µM): < 0.0316 µM
viability, T/C [1]: 84.8%
viability, T/C [2]: 84.4%
viability, T/C [3]: 89.6%
viability, T/C [4]: 85.3%
viability, T/C [5]: 20.8%
viability, T/C [6]: 7.87%
viability, T/C [7]: 79%
viability, T/C [8]: 110%
viability, T/C [9]: 119%
viability, T/C [10]: 69.9%
viability, T/C [11]: 29.2%
viability, T/C [12]: 6.85%
viability, T/C [13]: 81.6%
viability, T/C [14]: 84.8%
viability, T/C [15]: 97.9%
viability, T/C [16]: 40%
viability, T/C [17]: 14.8%
viability, T/C [18]: 3.31%
viability, T/C [19]: 50.6%
viability, T/C [20]: 21.1%
viability, T/C [21]: 1.24%
viability, T/C [22]: 0.74%
viability, T/C [23]: 0.68%
viability, T/C [24]: 1.98%
viability, T/C [25]: 1.91%
viability, T/C [26]: 1.5%
viability, T/C [27]: 0.93%
viability, T/C [28]: 0.3%
viability, T/C [29]: 0.36%
viability, T/C [30]: 0.91%

CC(C)n1nc(-c2ccc3oc(N)nc3c2)c2c(N)ncnc21 + CNCc1ccccc1-c1csc(C(C)Nc2nc(C)nc3cc(OC)c(OC)cc23)c1
IC50 (second compound 0.1 µM): > 0.1 µM
IC50 (second compound 0.316 µM): > 0.1 µM
IC50 (second compound 1 µM): > 0.1 µM
IC50 (second compound 3.16 µM): 0.00192 µM
IC50 (second compound 10 µM): < 0.000316 µM
viability, T/C (second compound 0.1 µM, first compound 0.000316 µM): 126%
viability, T/C (second compound 0.1 µM, first compound 0.001 µM): 113%
viability, T/C (second compound 0.1 µM, first compound 0.00316 µM): 159%
viability, T/C (second compound 0.1 µM, first compound 0.01 µM): 185%
viability, T/C [1]: 128%
viability, T/C [2]: 154%
viability, T/C (second compound 0.316 µM, first compound 0.000316 µM): 117%
viability, T/C (second compound 0.316 µM, first compound 0.001 µM): 150%
viability, T/C (second compound 0.316 µM, first compound 0.00316 µM): 172%
viability, T/C (second compound 0.316 µM, first compound 0.01 µM): 136%
viability, T/C [7]: 142%
viability, T/C [8]: 109%
viability, T/C (second compound 1 µM, first compound 0.000316 µM): 131%
viability, T/C (second compound 1 µM, first compound 0.001 µM): 135%
viability, T/C (second compound 1 µM, first compound 0.00316 µM): 156%
viability, T/C (second compound 1 µM, first compound 0.01 µM): 132%
viability, T/C [13]: 76.4%
viability, T/C [14]: 84.2%
viability, T/C (second compound 3.16 µM, first compound 0.000316 µM): 66.2%
viability, T/C (second compound 3.16 µM, first compound 0.001 µM): 105%
viability, T/C (second compound 3.16 µM, first compound 0.00316 µM): 22.9%
viability, T/C (second compound 3.16 µM, first compound 0.01 µM): 1.2%
viability, T/C [19]: 12.4%
viability, T/C [20]: 2.02%
viability, T/C (second compound 10 µM, first compound 0.000316 µM): 0.21%
viability, T/C (second compound 10 µM, first compound 0.001 µM): 0.64%
viability, T/C (second compound 10 µM, first compound 0.00316 µM): 1.75%
viability, T/C (second compound 10 µM, first compound 0.01 µM): 0.23%
viability, T/C [25]: 0.41%
viability, T/C [26]: 0.41%

CC1(C)CCC(CN2CCN(c3ccc(C(=O)NS(=O)(=O)c4ccc(NCC5CCOCC5)c([N+](=O)[O-])c4)c(Oc4cnc5[nH]ccc5c4)c3)CC2)=C(c2ccc(Cl)cc2)C1 + CNCc1ccccc1-c1csc(C(C)Nc2nc(C)nc3cc(OC)c(OC)cc23)c1
IC50 (second compound 0.1 µM): 2.18 µM
IC50 (second compound 0.316 µM): 2.19 µM
IC50 (second compound 1 µM): 2.05 µM
IC50 (second compound 3.16 µM): 1.55 µM
IC50 (second compound 10 µM): < 0.0316 µM
viability, T/C [1]: 91.4%
viability, T/C [2]: 106%
viability, T/C [3]: 97.5%
viability, T/C [4]: 92.9%
viability, T/C [5]: 29.4%
viability, T/C [6]: 4.56%
viability, T/C [7]: 94.7%
viability, T/C [8]: 101%
viability, T/C [9]: 95.2%
viability, T/C [10]: 104%
viability, T/C [11]: 27.4%
viability, T/C [12]: 2.36%
viability, T/C [13]: 88.5%
viability, T/C [14]: 96.7%
viability, T/C [15]: 126%
viability, T/C [16]: 132%
viability, T/C [17]: 13.6%
viability, T/C [18]: 2.22%
viability, T/C [19]: 45.1%
viability, T/C [20]: 98.6%
viability, T/C [21]: 64.8%
viability, T/C [22]: 102%
viability, T/C [23]: 5.49%
viability, T/C [24]: 0.23%
viability, T/C [25]: 0.25%
viability, T/C [26]: 0.32%
viability, T/C [27]: 1.83%
viability, T/C [28]: 0.35%
viability, T/C [29]: 0.66%
viability, T/C [30]: 0.23%
